This note sets out measurements from ChEMBL document CHEMBL3867422, “Design and synthesis of pyrimidinyl acyl thioureas as novel Hsp90 inhibitors in invasive ductal breast cancer and its bone metastasis” (Eur J Med Chem, 2016).

The target in assay [1] is Heat shock protein HSP 90-alpha (Homo sapiens) (UniProt P07900). Nature of the assay: Inhibition of human His-tagged Hsp90 alpha N-terminal domain ATPase activity expressed in Escherichia coli BL21(DE3) at 25 uM assessed as ADP formation by pyruvate kinase/lactate dehydrogenase-coupled assay.
The target is the same in assay [2]. Nature of the assay: Inhibition of human His-tagged Hsp90 alpha N-terminal domain ATPase activity expressed in Escherichia coli BL21(DE3) at 50 uM assessed as ADP formation by pyruvate kinase/lactate dehydrogenase-coupled assay.
Assay [3] shares this target. Nature of the assay: Inhibition of human His-tagged Hsp90 alpha N-terminal domain ATPase activity expressed in Escherichia coli BL21(DE3) at 3.125 uM assessed as ADP formation by pyruvate kinase/lactate dehydrogenase-coupled assay.
The target is the same in assay [4]. Nature of the assay: Inhibition of human His-tagged Hsp90 alpha N-terminal domain ATPase activity expressed in Escherichia coli BL21(DE3) at 100 uM assessed as ADP formation by pyruvate kinase/lactate dehydrogenase-coupled assay.
The target is the same in assay [5]. Nature of the assay: Inhibition of human His-tagged Hsp90 alpha N-terminal domain ATPase activity expressed in Escherichia coli BL21(DE3) at 12.5 uM assessed as ADP formation by pyruvate kinase/lactate dehydrogenase-coupled assay.
For assay [6] the target is unchanged. The assay is described as follows: Inhibition of human His-tagged Hsp90 alpha N-terminal domain ATPase activity expressed in Escherichia coli BL21(DE3) at 6.25 uM assessed as ADP formation by pyruvate kinase/lactate dehydrogenase-coupled assay.

For the molecule `CCn1cc(C(=O)NC(=S)Nc2ccc(OC)cc2)c(-c2ccccc2)nc1=O`, the Activity amounted to 28.5 nmol/min/mg in assay [1]; 16.2 nmol/min/mg in assay [2]; 81.1 nmol/min/mg in assay [3]; 11.4 nmol/min/mg in assay [4]; 37.7 nmol/min/mg in assay [5]; 59.4 nmol/min/mg in assay [6].
Regarding `CCn1cc(C(=O)NC(=S)Nc2cccc3ccccc23)c(-c2ccccc2)nc1=O`, the Activity came out at 24.4 nmol/min/mg in assay [1]; 13.2 nmol/min/mg in assay [2]; 75.5 nmol/min/mg in assay [3]; 8.19 nmol/min/mg in assay [4]; 36.1 nmol/min/mg in assay [5]; 49.5 nmol/min/mg in assay [6].
In the case of `CCn1cc(C(=O)NC(=S)Nc2ccc(C(N)=O)cc2)c(-c2ccccc2)nc1=O`, the Activity was determined as 64 nmol/min/mg in assay [1]; 51.1 nmol/min/mg in assay [2]; 93.5 nmol/min/mg in assay [3]; 37.5 nmol/min/mg in assay [4]; 73.4 nmol/min/mg in assay [5]; 87.1 nmol/min/mg in assay [6].
As for `CCn1cc(C(=O)NC(=S)Nc2ccccc2)c(-c2ccccc2)nc1=O`, the Activity is 40.4 nmol/min/mg in assay [1]; 32 nmol/min/mg in assay [2]; 85.3 nmol/min/mg in assay [3]; 26.1 nmol/min/mg in assay [4]; 60.8 nmol/min/mg in assay [5]; 70.3 nmol/min/mg in assay [6].
In the case of `CCn1cc(C(=O)NC(=S)Nc2ccc(Cl)cc2)c(-c2ccccc2)nc1=O`, the Activity in assay [1] was found to be 70.4 nmol/min/mg; in assay [2], 61 nmol/min/mg; in assay [3] it was 88.8 nmol/min/mg; in assay [4], 49.8 nmol/min/mg; in assay [5] it was 74.1 nmol/min/mg; in assay [6] it was 83.5 nmol/min/mg.
On to `CCn1cc(C(=O)NC(=S)Nc2ccc(F)cc2)c(-c2ccccc2)nc1=O`, for which the Activity in assay [1] was found to be 53.1 nmol/min/mg; in assay [2], 38.2 nmol/min/mg; in assay [3], 92.6 nmol/min/mg; in assay [4], 27.6 nmol/min/mg; in assay [5], 72 nmol/min/mg; in assay [6], 84.1 nmol/min/mg.
On to `CCn1cc(C(=O)NC(=S)Nc2ccccc2C)c(-c2ccccc2)nc1=O`, for which the Activity was determined as 50.1 nmol/min/mg in assay [1]; 38 nmol/min/mg in assay [2]; 93.5 nmol/min/mg in assay [3]; 28.9 nmol/min/mg in assay [4]; 70.9 nmol/min/mg in assay [5]; 85.7 nmol/min/mg in assay [6].
For the molecule `CCn1cc(C(=O)NC(=S)Nc2ccc(C)cc2)c(-c2ccccc2)nc1=O`, the Activity in assay [1] was found to be 55 nmol/min/mg; in assay [2], 43.4 nmol/min/mg; in assay [3] it was 90.2 nmol/min/mg; in assay [4], 33.1 nmol/min/mg; in assay [5], 72.9 nmol/min/mg; in assay [6], 80.5 nmol/min/mg.
In the case of `CCn1cc(C(=O)NC(=S)NCc2ccccc2)c(-c2ccccc2)nc1=O`, the Activity in assay [1] was determined as 61.2 nmol/min/mg; in assay [2], 50.2 nmol/min/mg; in assay [3] it was 90.2 nmol/min/mg; in assay [4], 35.9 nmol/min/mg; in assay [5] it was 75.1 nmol/min/mg; in assay [6] it was 80 nmol/min/mg.
Regarding `CCn1cc(C(=O)NC(=S)Nc2ccc(Br)cc2)c(-c2ccccc2)nc1=O`, the Activity came out at 26.6 nmol/min/mg in assay [1]; 16.4 nmol/min/mg in assay [2]; 80.1 nmol/min/mg in assay [3]; 13.5 nmol/min/mg in assay [4]; 39.7 nmol/min/mg in assay [5]; 63.6 nmol/min/mg in assay [6].
